Drawing on patent US8680012B2, “4-phenyl-pyrane-3,5-diones,4-phenyl-thiopyrane-3,6-diones and cyclohexanetriones as novel herbicides” (Syngenta Crop Protection LLC, priority 2006, dated 2014), this text covers pest or weed control for 13 compounds.

Each structure is given as a SMILES string.

Common to all, as to type: in vivo
Test [1] relates to Alopecurus myosuroides (ALOMY). Nature of the test: Example B pre-emergence herbicidal activity, glasshouse pot test. To be noted: 312 h, rate 250 g/ha, evaluated after 13 days, read-out: Pre-emergence activity ALOMY (100=total damage to plant; 0=no damage to plant). As for the experimental part:
(§1) Seeds of a variety of test species were sown in standard soil in pots. After cultivation for one day (pre-emergence) or after 8 days cultivation (post-emergence) under controlled conditions in a glasshouse (at 24/16° C., day/night; 14 hours light; 65% humidity), the plants were sprayed with an aqueous spray solution derived from the formulation of the technical active ingredient in acetone/water (50:50) solution containing 0.5% Tween 20 (polyoxyethelyene sorbitan monolaurate, CAS RN 9005-64-5). The test plants were then grown in a glasshouse under controlled conditions in a glasshouse (at 24/16° C., day/night; 14 hours light; 65% humidity) and watered twice daily. After 13 days for pre and post-emergence, the test was evaluated (100=total damage to plant; 0=no damage to plant).
(§2) Alopecurus myosuroides (ALOMY), Avena fatua (AVEFA), Setaria faberi (SETFA), Echinochloa crus-galli (ECHCG), Solanum nigrum (SOLNI) and Amaranthus retroflexus (AMARE)

In test [2] the test system is Amaranthus retroflexus (AMARE). Described as above. To be noted: 312 h, rate 250 g/ha, evaluated after 13 days, read-out: Pre-emergence activity AMARE (100=total damage to plant; 0=no damage to plant). How it is done: as §1, §2
The test system of test [3] is Avena fatua (AVEFA). The description is as above. To be noted: 312 h, rate 250 g/ha, evaluated after 13 days, read-out: Pre-emergence activity AVEFA (100=total damage to plant; 0=no damage to plant). How it is done:
as §1, §2

Test [4] relates to Echinochloa crus-galli (ECHCG). The test is described as above. To be noted: 312 h, rate 250 g/ha, evaluated after 13 days, read-out: Pre-emergence activity ECHCG (100=total damage to plant; 0=no damage to plant). How it is done:
as §1, §2

Test [5] has as its system Setaria faberi (SETFA). The test is described as above. The following applies: 312 h, rate 250 g/ha, evaluated after 13 days, read-out: Pre-emergence activity SETFA (100=total damage to plant; 0=no damage to plant). As for the experimental part: as §1, §2
For test [6], the system named is Alopecurus myosuroides (ALOMY). Briefly: Example B post-emergence herbicidal activity, glasshouse pot test. To be noted: 312 h, rate 250 g/ha, evaluated after 13 days, read-out: Post-emergence activity ALOMY (100=total damage to plant; 0=no damage to plant). How it is done: as §1, §2
In test [7] the test system is Amaranthus retroflexus (AMARE). The test is described as above. The following applies: 312 h, rate 250 g/ha, evaluated after 13 days, read-out: Post-emergence activity AMARE (100=total damage to plant; 0=no damage to plant). How it is done:
as §1, §2

The test system of test [8] is Avena fatua (AVEFA). The test is described as above. The following applies: 312 h, rate 250 g/ha, evaluated after 13 days, read-out: Post-emergence activity AVEFA (100=total damage to plant; 0=no damage to plant). How it is done: as §1, §2
Test [9] deals with Echinochloa crus-galli (ECHCG). The test is described as above. To be noted: 312 h, rate 250 g/ha, evaluated after 13 days, read-out: Post-emergence activity ECHCG (100=total damage to plant; 0=no damage to plant). How it is done: as §1, §2
For test [10], the system named is Setaria faberi (SETFA). Described as above. The following applies: 312 h, rate 250 g/ha, evaluated after 13 days, read-out: Post-emergence activity SETFA (100=total damage to plant; 0=no damage to plant). How it is done: as §1, §2

Consider `CCc1ccc(-c2ccc(Cl)cc2)cc1C1=C(O)[C@@]2(C)C=C[C@H](O2)C1=O` [Compound A-62], for which the pest or weed control at 250 g/ha in [1] was found to be 20%; in test [2] it was 0%; in [3], 20%; in test [4] it was 0%; in test [5], 60%; in test [6], 70%. In addition, the pest or weed control at 250 g/ha stood at 0% in [7], 70% in test [8], 100% in [9] and 100% in test [10].
`CCc1ccc(-c2cc(Cl)c(Cl)cc2Cl)cc1C1=C(O)C(C)(C)OC(C)(C)C1=O` [Compound A-144]: the pest or weed control at 250 g/ha worked out at 100% in test [1]; 30% in test [2]; 80% in test [3]; 90% in [4]; 100% in test [5]; 100% in [6]. Besides, the pest or weed control at 250 g/ha in test [7] amounted to 40%; in test [8] it was 100%; in [9] it was 100%; in test [10], 100%.
Take `CCc1ccc(-c2ccc(Br)cc2)cc1C1=C(O)C(C)(C)OC(C)(C)C1=O` [Compound A-81]: the pest or weed control at 250 g/ha stood at 80% in [1]; 0% in [2]; 90% in [3]; 100% in [4]; 100% in test [5]; 100% in [6]. The pest or weed control at 250 g/ha in test [7] worked out at 0%; in test [8] it was 100%; in test [9] it was 100%; in test [10], 100%.
In the case of `Cc1ccc(-c2ccc(Cl)cc2Cl)cc1C1=C(O)C(C)(C)S(=O)(=O)C(C)(C)C1=O` [Compound C-8], the pest or weed control at 250 g/ha turned out to be 0% in test [1]; 0% in test [2]; 0% in [3]; 0% in test [4]; 0% in [5]; 20% in [6]. For the same compound, the pest or weed control at 250 g/ha in [7] stood at 0%; in test [8], 0%; in test [9], 60%; in test [10], 40%.
With `CC1(C)OC(C)(C)C(O)=C(c2cc(-c3ccc(Cl)cc3F)ccc2Cl)C1=O` [Compound A-141], the pest or weed control at 250 g/ha in test [1] is 20%; in test [2], 0%; in test [3] it was 30%; in test [4], 100%; in test [5] it was 80%; in test [6], 50%. Further, the pest or weed control at 250 g/ha in test [7] came out at 0%; in test [8], 50%; in test [9] it was 100%; in test [10], 80%.
Take `Cc1ccc(-c2ccc(Br)cc2)cc1C1=C(O)C(C)(C)OC(C)(C)C1=O` [Compound A-82]: the pest or weed control at 250 g/ha was 80% in [1]; 20% in test [2]; 90% in test [3]; 100% in test [4]; 90% in test [5]; 100% in test [6]. In addition, the pest or weed control at 250 g/ha in test [7] is 0%; in test [8] it was 100%; in test [9], 100%; in test [10], 100%.
`CCc1ccc(-c2ccc(Cl)c(C(F)(F)F)c2)cc1C1=C(O)C(C)(C)OC(C)(C)C1=O` [Compound A-67]: the pest or weed control at 250 g/ha came to 40% in test [1]; 0% in test [2]; 0% in test [3]; 60% in test [4]; 90% in [5]; 80% in [6]. For the same compound, the pest or weed control at 250 g/ha in test [7] stood at 100%; in [8], 80%; in test [9], 100%; in test [10], 30%.
With `CCc1ccc(-c2ccc(Cl)cc2Cl)cc1C1=C(O)C(C)(C)[S+]([O-])C(C)(C)C1=O` (single isomer, unassigned) [Compound C-10], the pest or weed control at 250 g/ha in [1] came to 20%; in test [2] it was 0%; in test [3] it was 20%; in test [4] it was 40%; in test [5], 0%; in test [6] it was 20%. The pest or weed control at 250 g/ha came out at 0% in [7], 50% in [8], 70% in test [9] and 20% in [10].
As to `CC[C@]12CC[C@H](O1)C(=O)C(c1cc(-c3ccc(Cl)cc3)ccc1C)=C2O` (single isomer, unassigned) [Compound A-80], the pest or weed control at 250 g/ha turned out to be 30% in [1]; 0% in test [2]; 0% in [3]; 40% in test [4]; 70% in [5]; 30% in test [6]. Besides, the pest or weed control at 250 g/ha in test [7] was found to be 0%; in test [8] it was 0%; in test [9] it was 100%; in test [10], 90%.
Consider `Cc1cc(C)c(-c2ccc(Cl)cc2)c(C)c1C1=C(O)C(C)(C)OC(C)(C)C1=O` [Compound A-92], for which the pest or weed control at 250 g/ha came to 10% in test [1]; 0% in test [2]; 0% in [3]; 50% in test [4]; 60% in [5]; 50% in [6]. In addition, the pest or weed control at 250 g/ha in [7] worked out at 0%; in test [8], 0%; in test [9], 100%; in test [10] it was 90%.
For the compound `CC1(C)OC(C)(C)C(O)=C(c2cc(-c3ccc(Cl)cc3)ccc2Br)C1=O` [Compound A-149], the pest or weed control at 250 g/ha in test [1] was 60%; in test [2] it was 0%; in test [3], 30%; in test [4], 100%; in [5] it was 90%; in test [6], 90%. In addition, the pest or weed control at 250 g/ha came out at 20% in test [7], 70% in test [8], 100% in test [9] and 100% in [10].
Take `Cc1ccc(-c2cc[n+]([O-])cc2)cc1C1=C(O)C(C)(C)OC(C)(C)C1=O` [Compound A-105]: the pest or weed control at 250 g/ha in test [1], in test [2], in test [3], in test [4] and in [5] was 0% in each case.
Take `Cc1ccc(-c2cnc(N)nc2)cc1C1=C(O)C(C)(C)OC(C)(C)C1=O` [Compound A-104]: the pest or weed control at 250 g/ha in [1], in [2], in test [3], in test [4] and in test [5] was 0% each time.
